The record followed here is ChEMBL document CHEMBL1201862, “PubChem BioAssay data set” (2004).

Test systems include T47D; DU-145; A498; SR; SNB-19; SW-620; NCI-H522; SNB-75; M14; SK-MEL-28; NCI-H23; SK-MEL-2; MDA-MB-231; COLO 205; MOLT-4; EKVX; NCI-H460; NCI-H226; RPMI-8226.
Experiment in all cases: growth of human tumour cells (NCI), 48 h

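In this assay, cells in 96-well plates receive the compound at five concentrations for 48 hours. Endpoints are linearly interpolated between the surrounding concentrations. At the GI50, growth is halved.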 Active and inactive are the calls of the source. No stated cut-off is given here; in the data, active = GI50 up to about 1.1 µM and inactive = higher. Some results are limits rather than exact numbers.

Regarding `CC(=O)Nc1cc(C(=O)Nc2cc(C(=O)N3CC(CCl)c4c3cc(N)c3ccccc43)nn2C)nn1C` (centres undefined), the GI50 with T47D is < 0.01 µM (active); in the assay with DU-145 it was < 0.01 µM (active); in the assay with A498, < 0.0115 µM (active); in the assay with SR it was < 0.01 µM (active); with SNB-19 it was 0.127 µM (active); in the assay on SW-620, < 0.0383 µM (active). The GI50 is < 0.01 µM (active) with NCI-H522; 0.0215 µM (active) in the assay with SNB-75; 0.286 µM (active) in the assay with M14; 0.0782 µM (active) in the assay with SK-MEL-28; < 0.0104 µM (active) with NCI-H23; 0.0731 µM (active) in the assay on SK-MEL-2. Further, the GI50 in the assay with MDA-MB-231 was 0.185 µM (active); in the assay on COLO 205, 0.112 µM (active); in the assay on MOLT-4, < 0.0112 µM (active); with EKVX, 0.159 µM (active); in the assay with NCI-H460 it was < 0.01 µM (active); with NCI-H226 it was < 0.0232 µM (active). Moreover, in the assay with RPMI-8226, the GI50 is 0.188 µM (active).

For `CCOC(C[Se]CC(OCC)OCC)OCC`, the GI50 is > 100 µM (inactive) with T47D; 37.5 µM (inactive) in the assay on DU-145; > 100 µM (inactive) in the assay on A498; > 100 µM (inactive) in the assay on SR; 48.8 µM (inactive) in the assay with SNB-19; 85.3 µM (inactive) in the assay with SW-620. In addition, the GI50 in the assay on NCI-H522 was > 100 µM (inactive); in the assay with SNB-75, 13.2 µM (inactive); with M14, 52.8 µM (inactive); with SK-MEL-28, 49.4 µM (inactive); in the assay with NCI-H23, 34.2 µM (inactive); in the assay with SK-MEL-2, 48.5 µM (inactive). For the same compound, the GI50 is 52.5 µM (inactive) in the assay with MDA-MB-231; > 100 µM (inactive) in the assay with COLO 205; 37.8 µM (inactive) with MOLT-4; > 100 µM (inactive) in the assay on EKVX; 65.9 µM (inactive) with NCI-H460; 21.5 µM (inactive) in the assay on NCI-H226. Moreover, in the assay on RPMI-8226, the GI50 is > 100 µM (inactive).

`NCCSCCC(=O)O`: the GI50 is > 33.5 µM (inactive) in the assay on T47D; > 52 µM (inactive) in the assay on DU-145; > 68.7 µM (inactive) in the assay with A498; 14.4 µM (inactive) with SR; > 94.8 µM (inactive) in the assay on SNB-19; 19.7 µM (inactive) in the assay on SW-620. Besides, the GI50 in the assay on NCI-H522 was > 66.1 µM (inactive); in the assay on SNB-75, > 40.3 µM (inactive); with M14, > 74.8 µM (inactive); with SK-MEL-28, 37.9 µM (inactive); in the assay with NCI-H23, > 25.8 µM (inactive); in the assay on SK-MEL-2, > 83.8 µM (inactive). Also, the GI50 in the assay on MDA-MB-231 is > 100 µM (inactive); with COLO 205 it was 30.4 µM (inactive); in the assay with MOLT-4 it was 29.7 µM (inactive); with EKVX, > 100 µM (inactive); in the assay with NCI-H460, > 12.4 µM (inactive); in the assay with NCI-H226, > 100 µM (inactive). Also, the GI50 with RPMI-8226 is 25.8 µM (inactive).

As for `COc1cc([C@@H]2C3C(=O)c4ccccc4C3[C@@H](c3cc(OC)c(OC)c(OC)c3)C23Cc2ccccc2C3=O)cc(OC)c1OC` (some centres undefined), the GI50 in the assay on T47D, with DU-145, with A498, with SR, with SNB-19 and with SW-620 was > 100 µM (inactive) each time. In addition, the GI50 in the assay with NCI-H522 is > 100 µM (inactive); with SNB-75 it was 21.8 µM (inactive); with M14 it was > 100 µM (inactive); with SK-MEL-28, > 100 µM (inactive); with NCI-H23 it was > 100 µM (inactive); in the assay on MDA-MB-231, > 100 µM (inactive). Moreover, the GI50 is > 100 µM (inactive) in the assay with COLO 205; > 100 µM (inactive) with MOLT-4; > 100 µM (inactive) in the assay on EKVX; > 100 µM (inactive) in the assay on NCI-H460; > 100 µM (inactive) with NCI-H226; 37.8 µM (inactive) in the assay on RPMI-8226.

Consider `COP1(=S)OCC2CCC[C@@H]2O1` (some centres undefined), for which the GI50 in the assay with T47D, in the assay on DU-145, in the assay on A498, in the assay with SR, with SNB-19 and in the assay with SW-620 was > 100 µM (inactive) throughout. Also, the GI50 with NCI-H522, in the assay on SNB-75, in the assay on M14, in the assay on SK-MEL-28, with NCI-H23 and in the assay with SK-MEL-2 was > 100 µM (inactive) throughout. In addition, the GI50 in the assay on MDA-MB-231, in the assay with COLO 205, in the assay with MOLT-4, in the assay with NCI-H460, in the assay on NCI-H226 and in the assay on RPMI-8226 was > 100 µM (inactive) throughout.

On to `COCN1C(=O)[C@@H]2C[C@@H](O)CN2C(=O)c2ccccc21`, for which the GI50 in the assay with T47D, in the assay with DU-145, in the assay with A498, in the assay with SR, in the assay with SNB-19 and in the assay on SW-620 was > 100 µM (inactive) each time. In addition, the GI50 with NCI-H522, in the assay with SNB-75, with M14, with SK-MEL-28, in the assay on NCI-H23 and in the assay on SK-MEL-2 was > 100 µM (inactive) in each case. For the same compound, the GI50 is > 100 µM (inactive) in the assay on MDA-MB-231; > 100 µM (inactive) in the assay on COLO 205; 61.7 µM (inactive) in the assay on MOLT-4; > 100 µM (inactive) in the assay with EKVX; > 100 µM (inactive) in the assay with NCI-H460; > 100 µM (inactive) with RPMI-8226.

As to `O=c1[nH]nc(Cc2ccccc2)n1/N=C/c1c(O)ccc2ccccc12`, the GI50 was 20.2 µM (inactive) with T47D; 57 µM (inactive) in the assay on DU-145; 18.5 µM (inactive) in the assay with A498; 21.3 µM (inactive) in the assay on SR; 18.4 µM (inactive) in the assay on SNB-19; 43.5 µM (inactive) in the assay on SW-620. The GI50 in the assay on NCI-H522 was 16.6 µM (inactive); with SNB-75 it was 17.7 µM (inactive); in the assay with NCI-H23, 27.2 µM (inactive); with SK-MEL-2 it was 38.1 µM (inactive); with MDA-MB-231 it was 19.7 µM (inactive); with COLO 205 it was 47.4 µM (inactive). Moreover, the GI50 is 26.4 µM (inactive) in the assay on MOLT-4, 20.7 µM (inactive) in the assay with EKVX, 24.5 µM (inactive) in the assay with NCI-H226 and 19.8 µM (inactive) with RPMI-8226.

For the compound `Cc1cccc(N2C(=O)C3ON(C(C(N)=O)c4ccccc4)C(c4c5ccccc5c(Cl)c5ccccc45)C3C2=O)c1C` (centres undefined), the GI50 is 9.57 µM (inactive) with T47D; 10.4 µM (inactive) with DU-145; 11.9 µM (inactive) in the assay with A498; 1.69 µM (inactive) with SR; 8.85 µM (inactive) with SNB-19; 3.53 µM (inactive) in the assay on SW-620. In addition, the GI50 with NCI-H522 was 10.5 µM (inactive); in the assay on SNB-75 it was 8.05 µM (inactive); in the assay with M14, 7.93 µM (inactive); with SK-MEL-28, 13 µM (inactive); in the assay with NCI-H23, 11.6 µM (inactive); in the assay on SK-MEL-2, 9.23 µM (inactive). In addition, the GI50 in the assay on MDA-MB-231 was 9.42 µM (inactive); with COLO 205 it was 9.42 µM (inactive); in the assay on MOLT-4, 1.89 µM (inactive); in the assay on EKVX it was 9.23 µM (inactive); in the assay with NCI-H460, 9.71 µM (inactive); in the assay with NCI-H226 it was 7.13 µM (inactive).

On to `CN(C)N1C(=O)CC2(CCN(CCCC(=O)c3ccc(F)cc3)CC2)C1=O`, for which the GI50 in the assay on T47D, in the assay with DU-145, in the assay with A498, in the assay with SR, in the assay with SNB-19 and in the assay with SW-620 was > 100 µM (inactive) each time. The GI50 in the assay on NCI-H522, in the assay on SNB-75, in the assay with M14, in the assay on SK-MEL-28, in the assay with NCI-H23 and with SK-MEL-2 was > 100 µM (inactive) throughout. Further, the GI50 in the assay on MDA-MB-231, with COLO 205, in the assay on MOLT-4, in the assay with NCI-H460, in the assay on NCI-H226 and with RPMI-8226 was > 100 µM (inactive) each time.

As for `CC(C)(C)OC(=O)C1CCC/C1=N/Nc1ccc([N+](=O)[O-])cc1[N+](=O)[O-]` (centres undefined), the GI50 in the assay on T47D is 16.3 µM (inactive); with DU-145 it was 47.2 µM (inactive); with A498, 13 µM (inactive); in the assay on SR it was 26.1 µM (inactive); in the assay on SNB-19 it was 41.5 µM (inactive); in the assay on SW-620, 27.9 µM (inactive). The GI50 is 18.8 µM (inactive) in the assay with NCI-H522; 19.1 µM (inactive) in the assay on SNB-75; 39.6 µM (inactive) in the assay on M14; 54.7 µM (inactive) with SK-MEL-28; 18 µM (inactive) in the assay with NCI-H23; 20 µM (inactive) in the assay with MDA-MB-231. For the same compound, the GI50 in the assay with COLO 205 was 27 µM (inactive); in the assay on MOLT-4, 17.7 µM (inactive); with EKVX, 24.7 µM (inactive); in the assay with NCI-H460 it was 37.9 µM (inactive); with NCI-H226, 21.3 µM (inactive); in the assay on RPMI-8226 it was 32 µM (inactive).

Turning to `C=C(C)C12OC3(c4ccccc4)OC1C1C4OC4(CO)C(O)C4(O)C(=O)C(C)=CC4C1(O3)C(C)C2OC(=O)/C=C/C=C/c1ccccc1` (centres undefined), the GI50 in the assay on T47D is 1.51 µM (inactive); in the assay on DU-145, 0.215 µM (active); in the assay with A498, < 0.0005 µM (active); with SR, 0.122 µM (active); in the assay with SNB-19, 0.713 µM (active); in the assay on NCI-H522, 0.267 µM (active). The GI50 with SNB-75 is 0.132 µM (active); in the assay on M14, 0.0853 µM (active); in the assay with SK-MEL-28 it was 0.33 µM (active); in the assay with NCI-H23, 0.312 µM (active); in the assay with SK-MEL-2 it was 0.337 µM (active); in the assay with MDA-MB-231 it was < 0.0005 µM (active). For the same compound, the GI50 in the assay on COLO 205 is < 0.0005 µM (active); in the assay with MOLT-4 it was 0.113 µM (active); in the assay with EKVX it was 0.188 µM (active); in the assay on NCI-H460, < 0.0005 µM (active); in the assay with NCI-H226, 0.228 µM (active); in the assay on RPMI-8226, 0.107 µM (active).
